Measured values as given in article PMC7477610 (Travel Medicine and Infectious Disease, 2020).
Where “and” joins values, the source holds several entries; their conditions need not be identical. Equal entries are not always repeated. Where two headings read alike, the source gives them in different places.

Experiments:
SARS-CoV-2 [1] = conditions: 10 μM, Vero E6 cells infected by SARS-CoV-2; cited from earlier work
Cytotoxicity assay = format: cell-based; conditions: African green monkey, Vero E6 cells
SARS-CoV-1 [2] = conditions: read-out: EC50 against SARS-CoV-1; cited from earlier work
[3] = human, uptake of 612 mg, extrapolated from 0.07% of dose in rat lung
SARS-CoV-1 [4] = conditions: mouse; cited from earlier work
dengue virus type 2 = conditions: cited from earlier work
[5] = tested on: SARS-CoV-2 (clinically isolated strain IHUMI-3); format: cell-based; conditions: for Selectivity index (SI), ratio CC50/EC50: Vero E6 cells
SARS-CoV-2 [6] = conditions: read-out: EC50 against SARS-CoV-2; Vero E6 cells, MOI of 0.2; cited from earlier work
[7] = cited from earlier work
[8] = at 6 h; cited from earlier work
[9] = can go up; cited from earlier work
[10] = cited from earlier work; remark: listed apart in the source
[11] = cited from earlier work; remark: listed apart in the source
Ebola virus [12] = conditions: read-out: EC50 against Ebola virus; cited from earlier work
Ebola virus [13] = conditions: mouse, in vivo; cited from earlier work
SARS-CoV-2 [14] = conditions: read-out: EC50 against SARS-CoV-2; in vitro; cited from earlier work
feline coronavirus = conditions: read-out: EC50 against feline coronavirus; cited from earlier work
[15] = amodiaquine given at 612 mg day
[16] = rats, single oral dose of 2 mg (10 mg/kg)

Compound: OC(c1cc(C(F)(F)F)nc2c(C(F)(F)F)cccc12)C1CCCCN1 (stereo not shown) [Mefloquine]
- Inhibition of cytopathic effect (SARS-CoV-2 [1]): inhibited completely
- CC50 at 48 h (Cytotoxicity assay): 14.4 ± 2.1 µM

Compound: CCN(CC)Cc1cc(Nc2ccnc3cc(Cl)ccc23)ccc1O [Amodiaquine]
- EC50 (SARS-CoV-1 [2]): 2500 nM
- Amount that would be found in lungs [3]: 428 µg
- In vivo activity on SARS-CoV-1 (SARS-CoV-1 [4]): inactive
- EC50 (dengue virus type 2; read-out: EC50, dengue virus type 2 replication): 1080 nM
- EC90 (dengue virus type 2; read-out: EC90, dengue virus type 2 replication): 2690 nM

Compound: Clc1ccc2c(N3CCN(CCCN4CCN(c5ccnc6cc(Cl)ccc56)CC4)CC3)ccnc2c1 [Piperaquine]
- Selectivity index (SI), ratio CC50/EC50 [5]: 2
- CC50 at 48 h (Cytotoxicity assay): 55 ± 4.8 µM

Compound: CCN(CCO)CCCC(C)Nc1ccnc2cc(Cl)ccc12 (stereo not shown) [Hydroxychloroquine]
- EC50 (SARS-CoV-2 [6]): 17.3 µM
- Cmax ([7]; oral uptake of 400 mg): 1220 nM
- Blood concentration [8]: around 0.3 μM
- Lung concentration [8]: 7.8 µM
- CC50 at 48 h (Cytotoxicity assay): 20.4 ± 1.4 µM

Compound: CCN(CC)CCCC(C)Nc1ccnc2cc(Cl)ccc12 (stereo not shown) [Chloroquine]
- Concentration in the lung [9]: up to 280 mg/kg
- EC50 (SARS-CoV-1 [2]): 2500 nM
- Adverse events [10]: 56%
- Selectivity index (SI), ratio CC50/EC50 [5]: >47
- EC50 (SARS-CoV-2 [6]): 7.1 µM
- In vivo activity on SARS-CoV-1 (SARS-CoV-1 [4]): inactive
- Plasma concentration ([7]; chloroquine 100 mg day, prophylaxis of malaria): 0.01–0.4 mg/l and 0.03–1.25 μM
- CC50 at 48 h (Cytotoxicity assay): > 100 µM

Compound: CCNCc1cc(Nc2ccnc3cc(Cl)ccc23)ccc1O [Desethylamodiaquine]
- Plasma concentration of desethylamodiaquine [7, 15]: 753 ng/ml and around 1.9 μM
- t1/2 [7, 15]: 8.9 days
- CC50 at 48 h (Cytotoxicity assay): 86.1 ± 10.5 µM

Compound: COc1ccc2nc3cc(Cl)ccc3c(Nc3cc(CN4CCCC4)c(O)c(CN4CCCC4)c3)c2n1 [Pyronaridine]
- Blood Cmax [11, 16]: 223 ng/mL
- Lung Cmax [11, 16]: 36.4 µg/g
- Lung Cmax relative to blood Cmax (more concentrated) [11, 16]: 165
- Adverse events [10]: around 38%
- EC50 (Ebola virus [12]): 1140 nM
- Selectivity index (SI), ratio CC50/EC50 [5]: 22
- t1/2 ([7]; 720 mg day, human): 33.5 days
- Plasma concentration ([7]; 720 mg day, human, listed as Pyronaridine tetraphosphate): 271 ng/ml and around 0.3 μM
- Protection against Ebola virus infection (Ebola virus [13]): protected mice
- CC50 at 48 h (Cytotoxicity assay): 15.9 ± 1.6 µM

Compound: CCCCN(CCCC)CC(O)c1cc(Cl)cc2c1-c1ccc(Cl)cc1/C2=C/c1ccc(Cl)cc1 (stereo not shown) [Lumefantrine]
- Selectivity index (SI), ratio CC50/EC50 [5]: 4
- Cmax ([7]; single oral dose 480 mg): 1100 nM
- CC50 at 48 h (Cytotoxicity assay): 87.7 ± 11.9 µM

Compound: C[C@H]1c2cccc(O)c2C(=O)C2=C(O)[C@]3(O)C(=O)C(C(N)=O)=C(O)[C@@H](N(C)C)[C@@H]3[C@@H](O)[C@@H]21 [doxycycline]
- EC50 (SARS-CoV-2 [14]): 5.6 µM

Compound: Ferroquine
- EC50 (SARS-CoV-1 [2]): 1400 nM
- EC90 ([5]; read-out: 90% effective concentration (EC90) against SARS-CoV-2): 2400 ± 900 nM
- EC50 ([5]; read-out: Median effective concentration (EC50) against SARS-CoV-2): 1500 ± 300 nM
- Mean Cmax (maximum blood concentration) ([7]; oral uptake of 800 mg): 155 ng/mL
- t1/2 (elimination half-life) ([7]; oral uptake of 800 mg): 10.9 days
- Cmax ([7]; read-out: Mean Cmax (maximum blood concentration), oral uptake of 800 mg): ~600 nM
- EC50 (feline coronavirus): 2900 nM

Compound: C[C@H]1[C@@H](O)O[C@@H]2O[C@@]3(C)CC[C@H]4[C@H](C)CC[C@@H]1[C@@]24OO3 [Dihydroartemisinin]
- Selectivity index (SI), ratio CC50/EC50 [5]: 3
- CC50 at 48 h (Cytotoxicity assay): 58.9 ± 7.4 µM

Compound: C=C[C@H]1C[N@@]2CC[C@H]1C[C@H]2[C@H](O)c1ccnc2ccc(OC)cc12 [Quinine]
- Concentration lung/blood ratio ([11]; rat, intravenous dose of 10 mg/kg): 246
- Blood Cmax ([7]; 600 mg single oral dose of quinine sulphate): around 3.5 mg/l
- Cmax ([7]; read-out: Blood Cmax, 600 mg single oral dose of quinine sulphate): ~8500 nM
- CC50 at 48 h (Cytotoxicity assay): > 100 µM
